We go through 23 compounds from patent publication US11702404B2, “GLP-1R modulating compounds” (priority 2019, dated 2023).

The EC50 is the concentration giving half of the maximal effect.

Structures are written as SMILES.

One data set has as its target GLP-1R (Homo sapiens, UniProt P43220). The data set can be described thus: GLP-1R activation: cAMP increase in CHO cells stably expressing GLP-1R. The format is cell-based. Conditions: cAMP increase, CHO cells stably expressing GLP-1R, 10 point dose response, 30 minutes incubation; read-out: EC50.
Data set [1] can be described thus: Microsomal stability, human liver microsomes (predicted hepatic clearance). The settings on record: predicted from in vitro microsomal stability data.

GLP-1R, sequence (P43220 24-463): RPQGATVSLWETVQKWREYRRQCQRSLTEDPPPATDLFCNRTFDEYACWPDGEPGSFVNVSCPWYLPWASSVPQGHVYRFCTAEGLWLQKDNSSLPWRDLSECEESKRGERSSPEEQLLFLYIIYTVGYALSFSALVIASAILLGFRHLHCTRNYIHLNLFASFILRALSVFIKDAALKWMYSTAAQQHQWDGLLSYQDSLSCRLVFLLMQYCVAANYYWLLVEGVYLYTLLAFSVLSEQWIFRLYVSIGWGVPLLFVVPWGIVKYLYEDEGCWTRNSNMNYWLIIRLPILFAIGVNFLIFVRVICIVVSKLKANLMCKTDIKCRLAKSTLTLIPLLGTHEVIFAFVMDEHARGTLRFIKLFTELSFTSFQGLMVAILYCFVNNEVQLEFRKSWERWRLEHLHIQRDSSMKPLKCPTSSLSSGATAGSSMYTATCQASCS

In the case of `N#Cc1ccc(COc2nc(-c3cc(F)c(Cc4nc5c(F)cc(C(=O)O)cc5n4C[C@@H]4CCO4)cc3F)ncc2F)c(F)c1` [Example 131, (S)-2-(4-(4-((4-cyano-2-fluorobenzyl)oxy)-5-fluoropyrimidin-2-yl)-2,5-difluorobenzyl)-4-fluoro-1-(oxetan-2-ylmethyl)-1H-benzo[d]imidazole-6-carboxylic acid], the EC50 on GLP-1R came to 0.08 nM. In addition, the “Predicted Hepatic Clearance (Pred. Cl.)” value in data set [1] is 4 mL/min/kg.

Regarding `N#Cc1ccc(COc2nc(-c3ccc(Cc4nc5c(F)cc(C(=O)O)cc5n4C[C@@H]4CCO4)c(F)c3)ccc2F)c(F)c1` [Example 132, (S)-2-(4-(6-((4-cyano-2-fluorobenzyl)oxy)-5-fluoropyridin-2-yl)-2-fluorobenzyl)-4-fluoro-1-(oxetan-2-ylmethyl)-1H-benzo[d]imidazole-6-carboxylic acid], the half-maximal effective concentration (EC50) at GLP-1R was 0.05 nM. Also, in data set [1], the “Predicted Hepatic Clearance (Pred. Cl.)” value was 3.58 mL/min/kg.

Take `N#CCC1(Cn2c(Cc3cc(F)c(-c4ncc(F)c(OCc5ccc(C#N)cc5F)n4)cc3F)nc3ccc(C(=O)O)cc32)CC1` [Example 133, 2-(4-(4-((4-cyano-2-fluorobenzyl)oxy)-5-fluoropyrimidin-2-yl)-2,5-difluorobenzyl)-1-((1-(cyanomethyl)cyclopropyl)methyl)-1H-benzo[d]imidazole-6-carboxylic acid]: the EC50 at GLP-1R amounted to 0.26 nM. In data set [1], the “Predicted Hepatic Clearance (Pred. Cl.)” value was 5.58 mL/min/kg.

Regarding `N#Cc1ccc(COc2nc(-c3ccc(Cc4nc5ccc(C(=O)O)cc5n4CC4(CF)CC4)c(F)c3)ccc2F)c(F)c1` [Example 134, 2-(4-(6-((4-cyano-2-fluorobenzyl)oxy)-5-fluoropyridin-2-yl)-2-fluorobenzyl)-1-((1-(fluoromethyl)cyclopropyl)methyl)-1H-benzo[d]imidazole-6-carboxylic acid], the EC50 at GLP-1R was 0.34 nM. Besides, the “Predicted Hepatic Clearance (Pred. Cl.)” value in data set [1] was under 1.83 mL/min/kg.

As to `COCCn1c(Cc2ccc(-c3cccc(OCc4ccc(C#N)c5ccoc45)n3)cc2F)nc2ccc(C(=O)O)cc21` [Example 135, 2-(4-(6-((4-cyanobenzofuran-7-yl)methoxy)pyridin-2-yl)-2-fluorobenzyl)-1-(2-methoxyethyl)-1H-benzo[d]imidazole-6-carboxylic acid], the EC50 on GLP-1R is 1.76 nM. Further, in data set [1], the “Predicted Hepatic Clearance (Pred. Cl.)” value is under 1.83 mL/min/kg.

As to `COCCn1c(Cc2ccc(-c3cccc(OCc4cccc5ccoc45)n3)cc2F)nc2ccc(C(=O)O)cc21` [Example 136, 2-(4-(6-(benzofuran-7-ylmethoxy)pyridin-2-yl)-2-fluorobenzyl)-1-(2-methoxyethyl)-1H-benzo[d]imidazole-6-carboxylic acid], on GLP-1R, the EC50 worked out at 24.5 nM. Also, the “Predicted Hepatic Clearance (Pred. Cl.)” value in data set [1] is 9 mL/min/kg.

With `COCCn1c(Cc2ccc(-c3cccc(OCc4cccc(C5CC5)c4)n3)cc2F)nc2ccc(C(=O)O)cc21` [Example 137, 2-(4-(6-((3-cyclopropylbenzyl)oxy)pyridin-2-yl)-2-fluorobenzyl)-1-(2-methoxyethyl)-1H-benzo[d]imidazole-6-carboxylic acid], at GLP-1R, the EC50 amounted to 32.2 nM. Besides, the “Predicted Hepatic Clearance (Pred. Cl.)” value in data set [1] was 4.83 mL/min/kg.

Regarding `COCCn1c(Cc2ccc(-c3cccc(OCc4cccc(OC(F)F)c4F)n3)cc2F)nc2ccc(C(=O)O)cc21` [Example 138, 2-(4-(6-((3-(difluoromethoxy)-2-fluorobenzyl)oxy)pyridin-2-yl)-2-fluorobenzyl)-1-(2-methoxyethyl)-1H-benzo[d]imidazole-6-carboxylic acid], at GLP-1R, the EC50 amounted to 84.7 nM. Further, in data set [1], the “Predicted Hepatic Clearance (Pred. Cl.)” value is 7.5 mL/min/kg.

As for `COCCn1c(Cc2ccc(-c3cccc(OCc4cccc(OCC(F)F)c4)n3)cc2F)nc2ccc(C(=O)O)cc21` [Example 139, 2-(4-(6-((3-(2,2-difluoroethoxy)benzyl)oxy)pyridin-2-yl)-2-fluorobenzyl)-1-(2-methoxyethyl)-1H-benzo[d]imidazole-6-carboxylic acid], the half-maximal effective concentration (EC50) at GLP-1R amounted to 26.4 nM. Further, in data set [1], the “Predicted Hepatic Clearance (Pred. Cl.)” value is 7.17 mL/min/kg.

For `COCCn1c(Cc2ccc(-c3cccc(OCc4cccc(OC(F)F)c4OC)n3)cc2F)nc2ccc(C(=O)O)cc21` [Example 140, 2-(4-(6-((3-(difluoromethoxy)-2-methoxybenzyl)oxy)pyridin-2-yl)-2-fluorobenzyl)-1-(2-methoxyethyl)-1H-benzo[d]imidazole-6-carboxylic acid], on GLP-1R, the concentration for a half-maximal effect (EC50) worked out at 197 nM. The “Predicted Hepatic Clearance (Pred. Cl.)” value in data set [1] is 9.33 mL/min/kg.

On to `COCCn1c(Cc2ccc(-c3cccc(OCc4cc(C(C)C)ccc4F)n3)cc2F)nc2ccc(C(=O)O)cc21` [Example 141, 2-(2-fluoro-4-(6-((2-fluoro-5-isopropylbenzyl)oxy)pyridin-2-yl)benzyl)-1-(2-methoxyethyl)-1H-benzo[d]imidazole-6-carboxylic acid], for which the EC50 on GLP-1R was 80.3 nM. Besides, the “Predicted Hepatic Clearance (Pred. Cl.)” value in data set [1] is 5.5 mL/min/kg.

Take `COCCn1c(Cc2ccc(-c3cccc(OCc4cccc(C(C)(C)C#N)c4)n3)cc2F)nc2ccc(C(=O)O)cc21` [Example 142, 2-(4-(6-((3-(2-cyanopropan-2-yl)benzyl)oxy)pyridin-2-yl)-2-fluorobenzyl)-1-(2-methoxyethyl)-1H-benzo[d]imidazole-6-carboxylic acid]: the EC50 at GLP-1R worked out at 162 nM. In addition, the “Predicted Hepatic Clearance (Pred. Cl.)” value in data set [1] is 8.83 mL/min/kg.

Regarding `COCCn1c(Cc2ccc(-c3cccc(OCc4ccc(Cl)c5ccoc45)n3)cc2F)nc2ccc(C(=O)O)cc21` [Example 143, 2-(4-(6-((4-chlorobenzofuran-7-yl)methoxy)pyridin-2-yl)-2-fluorobenzyl)-1-(2-methoxyethyl)-1H-benzo[d]imidazole-6-carboxylic acid], the concentration giving a half-maximal response (EC50) at GLP-1R came to 2.59 nM. Besides, the “Predicted Hepatic Clearance (Pred. Cl.)” value in data set [1] is 5.33 mL/min/kg.

Consider `COCCn1c(Cc2ccc(-c3cccc(OCc4cc(C(C)C)ccc4OC)n3)cc2F)nc2ccc(C(=O)O)cc21` [Example 145, 2-(2-fluoro-4-(6-((5-isopropyl-2-methoxybenzyl)oxy)pyridin-2-yl)benzyl)-1-(2-methoxyethyl)-1H-benzo[d]imidazole-6-carboxylic acid], for which the EC50 at GLP-1R was found to be 1730 nM. In addition, the “Predicted Hepatic Clearance (Pred. Cl.)” value in data set [1] is 8.3 mL/min/kg.

In the case of `COCCn1c(Cc2ccc(-c3cccc(OCc4cccc5scnc45)n3)cc2F)nc2ccc(C(=O)O)cc21` [Example 146, 2-(4-(6-(benzo[d]thiazol-4-ylmethoxy)pyridin-2-yl)-2-fluorobenzyl)-1-(2-methoxyethyl)-1H-benzo[d]imidazole-6-carboxylic acid], on GLP-1R, the EC50 is 36.4 nM. Further, the “Predicted Hepatic Clearance (Pred. Cl.)” value in data set [1] was 7.33 mL/min/kg.

With `COCCn1c(Cc2ccc(-c3cccc(OCc4cccc5c4nnn5C)n3)cc2F)nc2ccc(C(=O)O)cc21` [Example 147, 2-(2-fluoro-4-(6-((1-methyl-1H-benzo[d][1,2,3]triazol-4-yl)methoxy)pyridin-2-yl)benzyl)-1-(2-methoxyethyl)-1H-benzo[d]imidazole-6-carboxylic acid], on GLP-1R, the EC50 was found to be 760 nM. Moreover, the “Predicted Hepatic Clearance (Pred. Cl.)” value in data set [1] was 12 mL/min/kg.

For the compound `COCCn1c(Cc2ccc(-c3cccc(OCc4cccc5ncsc45)n3)cc2F)nc2ccc(C(=O)O)cc21` [Example 148, 2-(4-(6-(benzo[d]thiazol-7-ylmethoxy)pyridin-2-yl)-2-fluorobenzyl)-1-(2-methoxyethyl)-1H-benzo[d]imidazole-6-carboxylic acid], the EC50 at GLP-1R was found to be 2050 nM. Moreover, in data set [1], the “Predicted Hepatic Clearance (Pred. Cl.)” value is 11.5 mL/min/kg.

Turning to `COCCn1c(Cc2ccc(-c3cccc(OCc4cccc5c4OC(C)(C)C5)n3)cc2F)nc2ccc(C(=O)O)cc21` [Example 152, 2-(4-(6-((2,2-dimethyl-2,3-dihydrobenzofuran-7-yl)methoxy)pyridin-2-yl)-2-fluorobenzyl)-1-(2-methoxyethyl)-1H-benzo[d]imidazole-6-carboxylic acid], the EC50 at GLP-1R was 130 nM. Also, the “Predicted Hepatic Clearance (Pred. Cl.)” value in data set [1] was 12 mL/min/kg.

For `N#CCC1(Cn2c(Cc3cc(F)c(-c4ccc(F)c(OCc5ccc(C#N)cc5F)n4)cc3F)nc3ccc(C(=O)O)cc32)CC1` [Example 153, 2-(4-(6-((4-cyano-2-fluorobenzyl)oxy)-5-fluoropyridin-2-yl)-2,5-difluorobenzyl)-1-((1-(cyanomethyl)cyclopropyl)methyl)-1H-benzo[d]imidazole-6-carboxylic acid], on GLP-1R, the EC50 worked out at 0.11 nM. In addition, in data set [1], the “Predicted Hepatic Clearance (Pred. Cl.)” value was 5.17 mL/min/kg.

With `N#CCC1(Cn2c(Cc3c(F)cc(-c4ccc(F)c(OCc5ccc(C#N)cc5F)n4)cc3F)nc3ccc(C(=O)O)cc32)CC1` [Example 154, 2-(4-(6-((4-cyano-2-fluorobenzyl)oxy)-5-fluoropyridin-2-yl)-2,6-difluorobenzyl)-1-((1-(cyanomethyl)cyclopropyl)methyl)-1H-benzo[d]imidazole-6-carboxylic acid], the EC50 at GLP-1R was determined as 0.51 nM. Moreover, the “Predicted Hepatic Clearance (Pred. Cl.)” value in data set [1] is 4.83 mL/min/kg.

For `COCCn1c(Cc2ccc(-c3cccc(OCc4cccc(C(C)(C)C)c4)n3)cc2F)nc2ccc(C(=O)O)cc21` [Example 155, 2-(4-(6-((3-(tert-butyl)benzyl)oxy)pyridin-2-yl)-2-fluorobenzyl)-1-(2-methoxyethyl)-1H-benzo[d]imidazole-6-carboxylic acid], at GLP-1R, the EC50 stood at 73.2 nM. Besides, the “Predicted Hepatic Clearance (Pred. Cl.)” value in data set [1] is 5.5 mL/min/kg.

Consider `COCCn1c(Cc2ccc(-c3cccc(OCc4ccc(Cl)c(C(C)C)c4)n3)cc2F)nc2ccc(C(=O)O)cc21` [Example 156, 2-(4-(6-((4-chloro-3-isopropylbenzyl)oxy)pyridin-2-yl)-2-fluorobenzyl)-1-(2-methoxyethyl)-1H-benzo[d]imidazole-6-carboxylic acid], for which, on GLP-1R, the EC50 came out at 51.5 nM. The “Predicted Hepatic Clearance (Pred. Cl.)” value in data set [1] is 5.5 mL/min/kg.

As to `COCCn1c(Cc2ccc(-c3cccc(OCc4cccc(C(C)C)c4OC)n3)cc2F)nc2ccc(C(=O)O)cc21` [Example 157, 2-(2-fluoro-4-(6-((3-isopropyl-2-methoxybenzyl)oxy)pyridin-2-yl)benzyl)-1-(2-methoxyethyl)-1H-benzo[d]imidazole-6-carboxylic acid], at GLP-1R, the EC50 came to 534 nM. Also, the “Predicted Hepatic Clearance (Pred. Cl.)” value in data set [1] was 7.67 mL/min/kg.
